Structures can show the parent of a compound that is named as a salt. Where two headings read alike, the source gives them in different places.
Assays:
[1] = target: T1, D-2 (dopamine-2) receptors (Rattus norvegicus, UniProt P61169); test: biochemical; format: binding, male, Wistar rats; details: rat striatum P2 fraction, 3H-spiperone 0.05 nM; read-out: Receptor Binding (Ki nM) D2
T1 construct: The D2 assay employed a P2 fraction from the striatum, the ligand ^3H-spiperone at a concentration of 0.05 nM; from tissue; host or cells: rat striatum, P2 fraction (synaptosomal membranes), male Wistar rats
Experimental: The dopamine D2 binding activity of compounds was determined using a P2 fraction (synaptosomal membranes) prepared from male, Wistar rats.
The data from this assay were analyzed by calculating the percent inhibition of the binding of the tritiated ligands by given concentrations of the test compound. Kl values, where given, were obtained from the logit analysis of concentration-inhibition curves.

[2] = Overall statement on the other non-antipsychotic screens; details: screens in which they have been tested to date
Source text: (§1) The antipsychotic activity of the compounds of the invention may be determined by the Block of Conditioned Avoidance Responding (Rat) test (CAR), references being Cook, L. and E. Weidley in Ann.

[3] = Overall statement on the antipsychotic screens (CAR test and D-2 affinity); details: as far as tested
Source text: as §1

[4] = test system: male, Sprague-Dawley rats; test: Catalepsy Test in Rats; details: 50 mg/kg IP
Experimental: The catalepsy test is taken to evaluate the liability of anti-psychotics to produce extra-pyramidal side effects.
The forepaws of male, Sprague-Dawley rats obtained from Charles River (170-240 g) were gently placed on a black cork (3.5 cm high) and the time until the forepaw was removed was recorded. Each rat was given three trials with a maximum time of 60 sec on the cork. The sum of the three trials was taken as the score for each rat. Percent catalepsy was defined as the percent of 180 sec (maximum time) that a rat permitted its forepaw to rest on the cork. […] In each test session, two control groups were used; animals treated with saline (or vehicle) served as a negative control and animals treated with haloperidol were a positive control.

[5] = test system: apomorphine-induced emesis in the dog; test: Block of Apomorphine-Induced Emesis In Dogs; format: in vivo; details: for ED50: Canis lupus familiaris, read-out: ED50 and 95% confidence limits, apomorphine HCl 1 mg/kg s.c.
Experimental: This latter test is used in the preclinical evaluation of antipsychotics, and it also implies that the compounds could be used clinically for the treatment of emesis.
This procedure was modified from that described in Janssen, P. A. J.; Niemegeers, C. J. E.; Schellekens, K. Arzn.-Forch. […] The animals were treated with a test dose of apomorphine HCI to produce retching, and the effectiveness of a test compound in blocking that retching is determined. […] Following one of several pretreatments, a challenge dose of 1 mg/kg apomorphine HCl s.c. was given and the number of retches that occurred during the following 20 min period was recorded. At the start of the series, and after one week on testing, all dogs were pretreated with saline before the challenge dose of apomorphine HCI was administered. All of the saline-pretreated animals retched. […] Data were analyzed to determine the ED50 dose for blocking apomorphine HCI-induced emesis.

[6] = test system: Male, Fischer 344 rats; test: Block of Conditioned Avoidance Responding (Rat) test (CAR); details: for CAR 15 mg/kg IP Administration (% change CAR) / CAR 5 mg/kg IP Administration (% change CAR): negative number = blockade of CAR
Outline: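 Trained rats at 90% avoidance ran 60-trial sessions with a 15-sec light/tone conditioned stimulus, then a 0.7 mA shock. Vehicle was given on Day 1 and test compound on Day 2, with matched route and pretreatment time. The % change in CAR versus Day 1 and % escape failures are group means, with escape loss at 5 mg/kg unless noted.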

[7] = test system: Male Charles-River rats; test: Rat Glass Bead Test (propulsive motility of the distal colon); format: in vivo; details: mean expulsion time of glass bead
Experimental: The rat glass bead test is used to evaluate the action of compounds on propulsive motility of the distal colon. Male Charles-River rats weighing 50-90 grams are fasted for at least 18 hours in individual cages with water provided. Groups of rats are then dosed by the indicated route at the appropriate pretreatment time. A 4 mm glass bead is then inserted 3.5 cm into the distal colon through the anus using a 4 mm diameter glass rod. Rats are then placed in open top glass jars and observed for 60 minutes. The time for expulsion of the bead is noted for each rat. Rats not expelling the bead after 60 minutes are necropsied and the presence of the bead in the colon confirmed. […] Statistical analysis is done using one way analysis of variance and Fisher's LSD comparison. A probability of less than 0.05 is considered to be statistically significant.

[8] = test system: spontaneously hypertensive rats (SHR model); test: Spontaneously Hypertensive Rat Test (SHR); format: in vivo; details: 30 mg/kg p.o.
Experimental: Compounds #37 and 87 were also evaluated in the fully recovered, unanesthetized, unrestrained spontaneously hypertensive rats (SHR model) which is described hereinafter. They were deemed to be active because at doses of 30 mg/kg p.o. they caused a drop in the mean arterial pressure. For compound #37 the drop was 26 mm of mercury with an onset of 0.5 h and a duration of 3.5 h. For compound no. 87 the drop was 37 mm of mercury with an onset of 0.25 h and a duration of 5.75 h.
Adult male 350-450 g SHR [Tac:N(SHR)FBR], Taconic Farms, Germantown, New York are prepared for direct measurement of arterial pressure, housed in individual cages, and maintained on constant intraarterial infusion to assure catheter patency. Rats are permitted a 7-day postoperative recovery period to allow complete restoration of salt/water balance and body weight. Rats are assigned to vehicle or drug treatment groups (n=3/group). Drugs are uniformly suspended in 1% methylcellulose vehicle and given orally by gavage. Parameters are sampled continuously from the conscious, unrestrained rats and averaged every 15 min for the first 2 h and then hourly through 24 h after dosing. In order to take diurnal changes that are not drug related into account, 24 h timecourse curves for each parameter in drug treated SHR are compared to those from the concurrent control group. Since the average standard between-subject error is about 5 mm of mercury for arterial pressure parameters and about 11 bpm for heart rate, differences from concurrent control of greater than 10 mm of mercury and 22 bpm (2 SEM) are considered drug-related activity. Onset and duration are calculated from any pattern that achieves a maximum difference that meets these criteria.

T1 sequence (P61169 whole entry): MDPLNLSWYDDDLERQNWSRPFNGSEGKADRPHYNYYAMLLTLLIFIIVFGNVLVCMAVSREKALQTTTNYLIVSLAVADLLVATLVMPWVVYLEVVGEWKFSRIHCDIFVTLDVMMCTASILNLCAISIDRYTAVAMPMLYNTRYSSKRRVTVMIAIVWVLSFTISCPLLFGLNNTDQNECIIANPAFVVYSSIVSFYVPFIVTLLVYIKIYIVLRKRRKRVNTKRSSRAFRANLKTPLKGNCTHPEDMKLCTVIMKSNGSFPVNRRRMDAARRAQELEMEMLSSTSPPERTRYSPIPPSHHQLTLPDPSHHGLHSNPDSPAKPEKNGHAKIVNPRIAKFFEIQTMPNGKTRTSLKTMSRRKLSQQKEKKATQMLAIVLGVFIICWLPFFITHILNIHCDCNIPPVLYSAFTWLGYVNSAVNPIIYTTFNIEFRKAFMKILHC

Compound | Ki [1] | activity in any of the other non-antipsychotic screens [2] | potential antipsychotic activity in either of the screens [3] | CAR 15 mg/kg IP Administration (% change CAR) [6] | (Escape Loss) % failures to escape ([6]; at CAR 15 mg/kg IP) | further results
CC1CN(Cc2cccc(C(=O)N3CCCCC3)c2)CCN1c1ccccc1 (centres unmarked) [Compound 8] | > 1000 nM | not exhibited activity | not exhibited potential antipsychotic activity | – | – | –
CC(C)Oc1ccccc1N1CCN(Cc2cccc(C(=O)N3CCCCC3)c2)CC1 [Compound 53, 1-[3-[[4-[2-(1-Methylethoxy)phenyl]-1-piperazinyl]methyl]benzoyl]piperidine Hydrochloride (3:2)] | – | – | – | – | – | Catalepsy (%) ([4]; Pre-Reaction Time 60 min): 32.4%; Catalepsy (%) ([4]; Pre-Reaction Time 240 min): 47.9%; ED50 ([5]; intravenous (IV) administration): 0.03 mg/kg; ED50 ([5]; oral administration, 1 h pretreatment): 0.038 mg/kg; ED50 ([5]; oral administration, 4 h pretreatment): 0.263 mg/kg; inhibition of apomorphine-induced emesis in the dog ([5]; dog, in vivo): particularly potent inhibitors; CAR IP Administration (% change CAR) at 7.5 mg/kg ([6]; 7.5 mg/kg IP): -91%; (Escape Loss) % failures to escape ([6]; at CAR 7.5 mg/kg IP): 8%
COc1ccc(OC)c(N2CCN(Cc3cccc(C(=O)N4CCCC4)c3)CC2)c1 [Compound 47] | > 1000 nM | not exhibited activity | not exhibited potential antipsychotic activity | 2% | 0% | –
O=C(c1cccc(CN2CCN(c3ccc(Cl)cc3)CC2)c1)N1CCCCC1 [Compound 87] | – | – | not exhibited potential antipsychotic activity | -5% | 0% | Glass bead expulsion time ([7]; IP, 1.0 mg/kg): 28 min; activity in the SHR model [8]: active; drop in the mean arterial pressure [8]: 37 mm of mercury; duration of the drop in mean arterial pressure [8]: 5.75 h; onset of the drop in mean arterial pressure [8]: 0.25 h
O=C(c1cccc(CN2CCN(c3ncccn3)CC2)c1)N1CCC[C@H]1CO [Compound 20] | > 1000 nM | not exhibited activity | not exhibited potential antipsychotic activity | -17% | 1% | –
O=C(c1cccc(CN2CCN(c3ccc4c(c3)OCO4)CC2)c1)N1CCCCC1 [Compound 36] | > 1000 nM | – | not exhibited potential antipsychotic activity | – | – | Glass bead expulsion time ([7]; PO, 10.0 mg/kg): 7.4 min; CAR 5 mg/kg IP Administration (% change CAR) [6]: -10%; (Escape Loss) % failures to escape ([6]; at CAR 5 mg/kg IP): 0%
COc1cccc(OC)c1N1CCN(Cc2cccc(C(=O)N3CCCCC3)c2)CC1 [Compound 48] | > 1000 nM | not exhibited activity | not exhibited potential antipsychotic activity | -1% | 1% | Glass bead expulsion time ([7]; IP, 1.0 mg/kg): 14 min
CC(O)COc1ccccc1N1CCN(Cc2cccc(C(=O)N3CCCCC3)c2)CC1 (centres unmarked) [Compound 27] | 703 nM | – | not exhibited potential antipsychotic activity | -8% | 0% | –
O=C(c1cccc(CN2CCN(c3ncccn3)CC2)c1)N1CCCCC1 [Compound 37] | > 1000 nM | – | not exhibited potential antipsychotic activity | – | – | Glass bead expulsion time ([7]; PO, 10.0 mg/kg): 25 min; CAR 5 mg/kg IP Administration (% change CAR) [6]: -18%; (Escape Loss) % failures to escape ([6]; at CAR 5 mg/kg IP): 1%; activity in the SHR model [8]: active; drop in the mean arterial pressure [8]: 26 mm of mercury; duration of the drop in mean arterial pressure [8]: 3.5 h; onset of the drop in mean arterial pressure [8]: 0.5 h
CC(C)Oc1ccccc1N1CCN(Cc2cccc(C(=O)N3CCCCC3C(=O)O)c2)CC1 (centres unmarked) [Compound 24] | > 1000 nM | not exhibited activity | not exhibited potential antipsychotic activity | – | – | –
